Results taken from patent publication US20250034264A1, “REGULATING T CELL IMMUNE RESPONSE THROUGH IGF-I RECEPTOR (IGF-1R)” (The Regents of the University of Michigan, priority 2021, published 2025).

System: GD-OF
Experiment: IL-23p19 and IL-12p35 mRNA expression, real-time PCR
Type: cell-based, human
Procedure: FIGS. 10A-10F are graphs showing the divergent effect of teprotumumab on bTSH induced IL-23p19 and IL-12p35 expression on fibrocytes and GD-OF. Rinsed fibrocyte and GD-OF monolayers were incubated with or without 50 μg/ml teprotumumab (FIGS. 10A and 10B) or 1 μM linsitinib (FIGS. 10C and 10D) and human Isotype IgG for 7-9 d, and bTSH (5 mIU/mL) was added for 6 h. Harvested RNA was reverse transcribed and isolated cDNA was subjected to quantitative real-time PCR for IL-23p19 and IL-12p35 mRNA levels. Values were normalized to their respective GAPDH levels and are expressed as the mean±SD of three independent determinations. Experiments were repeated three times. FIGS. 10E and 10F are graphs showing the levels of IL-23 protein when rinsed fibrocyte and GD-OF monolayers were incubated with or without 50 μg/ml teprotumumab. **, p<0.01; ***. P<0.001.
FIGS. 15A-15C are dose-response curves of teprotumumab effects on IL-6 expression/induction by bTSH (FIG. 15A); HAS2 expression/induction by bTSH (FIG. 15B); IL-12p35 expression/induction by bTSH (FIG. 15C). Following indicated treatments, cellular RNA was harvest from rinsed GD-OF cell layers, reversed transcribed and subjected to real-time PCR. Values were normalized to their respective GAPDH levels.
Graves' disease-orbital fibroblast (GD-OF) preparation and cultivtion GD-OF were isolated from orbital adipose/connective tissues removed during surgical orbital decompression surgery, as described ((Smith, T. J., et al., (2002) The Journal of clinical endocrinology and metabolism 87, 385-392). While the fraction of CD34^+ OF comprising GD-OF strains vary somewhat, the ratios of CD34^+/CD34^− OF are usually 50:50 in the early passages utilized in these studies (passages 2-11). Pure CD34^+ OF and CD34^− OF subsets were generated by staining for 30 m at 4° C. with fluorescein isothiocyanate-conjugated […] CD34 or its isotype control followed by cytometric cell sorting using a FACSAria III (BD Biosciences) instrument. Cells were sorted under sterile conditions into either CD34^+ OF, and CD34 OF subsets which were then re-cultured and treated without or with bTSH (5 mU/mL) or the other test compounds, as indicated, for 6 hrs, as indicated.
Real-time PCR Confluent fibrocyte and GD-OF cultures were incubated with bTSH (5 mIU/mL), teprotumumab (50 μg/mL) or linsitinib (1 μM) for the time intervals indicated, washed with PBS and RNA was extracted with the Aurum Total RNA Mini Kit (cat. #732-6820, Bio-Rad, Hercules, CA). Cellular RNA (2 μg) was reverse transcribed using QuantiTect Reverse Transcription kit (cat. #205314, Qiagen (Germantown, MD) and real-time PCR was performed using an Applied Biosystems instrument with QuantiTect SYBR Green PCR kit (cat. no. 204143; Qiagen, Frederick, MD). Primer sequences were as follows.

[1] = teprotumumab 50 μg/ml or linsitinib 1 μM, 7-9 d

Substance: teprotumumab
- dose dependence of effects (FIG. 15: IL-6, HAS2, IL-12p35 expression/induction by bTSH) (dose-response curves, GD-OF): dose-dependent
- IL-12p35 expression, basal and induction by bTSH [1]: enhances
- IL-23p19 expression, basal and induction by bTSH [1]: inhibited
